ChEMBL document CHEMBL1158441 (Bioorg Med Chem Lett, 2009)

Key:
Sphingosine kinase 1 = Sphingosine kinase 1 (Homo sapiens, UniProt Q9NYA1); test: Inhibition of SphK1
Sphingosine kinase 2 = molecular target: T1, Sphingosine kinase 2 (Homo sapiens, UniProt Q9NRA0); test: Inhibition of SphK2
T1 sequence (Q9NRA0 whole entry): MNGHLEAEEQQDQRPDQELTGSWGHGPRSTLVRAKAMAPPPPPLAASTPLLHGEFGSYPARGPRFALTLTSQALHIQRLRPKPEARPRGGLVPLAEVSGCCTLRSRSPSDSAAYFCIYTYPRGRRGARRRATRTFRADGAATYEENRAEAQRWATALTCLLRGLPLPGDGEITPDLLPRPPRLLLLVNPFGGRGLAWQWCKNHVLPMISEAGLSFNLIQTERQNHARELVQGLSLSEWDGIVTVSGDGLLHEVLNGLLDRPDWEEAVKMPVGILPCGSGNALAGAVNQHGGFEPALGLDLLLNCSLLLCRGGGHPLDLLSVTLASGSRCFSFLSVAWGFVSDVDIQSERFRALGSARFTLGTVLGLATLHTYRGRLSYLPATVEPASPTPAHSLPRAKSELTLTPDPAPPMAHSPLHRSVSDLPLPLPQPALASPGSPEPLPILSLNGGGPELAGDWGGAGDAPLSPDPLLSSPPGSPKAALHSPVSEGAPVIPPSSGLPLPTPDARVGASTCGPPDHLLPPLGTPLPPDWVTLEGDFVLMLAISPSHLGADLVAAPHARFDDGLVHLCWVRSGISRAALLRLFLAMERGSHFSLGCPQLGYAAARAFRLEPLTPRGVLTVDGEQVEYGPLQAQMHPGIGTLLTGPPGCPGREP

Sphingosine kinase 1, sequence (Q9NYA1 whole entry): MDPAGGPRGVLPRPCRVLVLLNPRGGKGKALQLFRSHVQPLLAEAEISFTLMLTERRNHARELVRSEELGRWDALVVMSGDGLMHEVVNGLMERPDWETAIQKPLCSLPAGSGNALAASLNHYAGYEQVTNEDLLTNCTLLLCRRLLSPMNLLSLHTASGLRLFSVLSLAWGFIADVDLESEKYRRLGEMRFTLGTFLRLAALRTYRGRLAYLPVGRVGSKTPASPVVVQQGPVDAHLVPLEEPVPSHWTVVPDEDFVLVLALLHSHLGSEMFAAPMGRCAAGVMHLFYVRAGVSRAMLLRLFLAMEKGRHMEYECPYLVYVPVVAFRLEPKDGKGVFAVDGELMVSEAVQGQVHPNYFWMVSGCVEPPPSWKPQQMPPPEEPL

Row | Structure (SMILES) | IC50 (Sphingosine kinase 1) | IC50 (Sphingosine kinase 2)
1 | N[C@@H](CO)[C@H](O)/C=C/CCCCCCCCCCCc1ccc(I)cc1 | 2.25 µM | 13.3 µM
2 | N[C@@H](CO)[C@H](O)/C=C/CCCCCCCCc1ccc(I)cc1 | 0.5 µM | 5.73 µM
3 | N[C@@H](CO)[C@H](O)/C=C/CCCCCCc1ccc(I)cc1 | 3.96 µM | 7.23 µM
4 | N[C@@H](CO)[C@H](O)/C=C/CCCCCCCCCc1ccc(I)cc1 | 2.78 µM | 16.6 µM
5 | CCCCCCCCCCCCC/C=C/[C@@H](O)[C@@H](N)CO [SPHINGOSINE] | – | 1.56 µM
6 | N[C@@H](CO)[C@H](O)/C=C/CCCCCCCCCCCCCc1ccc(I)cc1 | 3.98 µM | 29.2 µM
7 | N[C@@H](CO)[C@H](O)/C=C/CCCCCCCCCCc1ccc(I)cc1 | 2.19 µM | 4.38 µM
8 | CCCCCCCCCCCCC/C=C/[C@@H](O)[C@H](CO)N(C)C [DIMETHYLSPINGOSINE] | – | > 80 µM
